# How the values were obtained:
# Caco-2 cell monolayers = test: Caco-2 permeation assay; assay type: in vitro ADME; conditions: 5 μM, A-B direction, with Verapamil (25 μM)
# In short: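 Compounds tested at 5 μM in duplicate across Caco-2 monolayers, apical-to-basolateral, with 25 μM verapamil to block P-gp, at 37° C., 5% CO2. Apical and basal samples taken at 0 and 120 min, analysed by LC-MS/MS; Papp (cm/sec) calculated as dQ/(dt×Area×concentration).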
# JAK1 = JAK1 (Homo sapiens (Human), UniProt P23458); test: Biochemical JAK1 kinase assay (LanthaScreen)
# In short: (§1)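 GST-JAK + GFP-STAT1 peptide, HEPES pH 7.5/MgCl2/EGTA/Brij-35 buffer; cpd preincubation 1 h RT; ATP start, 1 h RT; stop with 10 mM EDTA + 2 nM Tb-anti-pSTAT1; TR-FRET 520/495. 4-parameter IC50 → pKi (Cheng-Prusoff).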
# [1] = test system: IL-2 stimulated STAT5 phosphorylation in Tall-1 human T cell line (JAK3); test: Cellular JAK3 potency assay: inhibition of IL-2 stimulated pSTAT5 in Tall-1 T cells; assay type: cell-based; conditions: IL-2 stimulated pSTAT5, Tall-1 T cells
# In short: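 Tall-1 cells, 45,000 per well, preincubated 1 hour with compound at 37 °C, then stimulated 30 minutes with IL-2 at 300 ng/ml final. pSTAT5 (Tyr694/699) in lysates quantified by AlphaLISA SureFire Ultra. pIC50 derived from inhibition curves, given as mean with SD.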
# Tyk2 = Tyk2 (Homo sapiens (Human), UniProt P29597); test: Biochemical Tyk2 kinase assay (LanthaScreen)
# In short: as §1
# JAK2 = JAK2 (Homo sapiens (Human), UniProt O60674); test: Biochemical JAK2 kinase assay (LanthaScreen)
# In short: as §1
# JAK3 = JAK3 (Homo sapiens (Human), UniProt P52333); test: Biochemical JAK3 kinase assay (LanthaScreen); conditions: for JAK3 (pKi)-JAK1 (pKi): selectivity JAK3 over JAK1, difference of pKi
# In short: as §1
# Tyk2, sequence (P29597 whole entry): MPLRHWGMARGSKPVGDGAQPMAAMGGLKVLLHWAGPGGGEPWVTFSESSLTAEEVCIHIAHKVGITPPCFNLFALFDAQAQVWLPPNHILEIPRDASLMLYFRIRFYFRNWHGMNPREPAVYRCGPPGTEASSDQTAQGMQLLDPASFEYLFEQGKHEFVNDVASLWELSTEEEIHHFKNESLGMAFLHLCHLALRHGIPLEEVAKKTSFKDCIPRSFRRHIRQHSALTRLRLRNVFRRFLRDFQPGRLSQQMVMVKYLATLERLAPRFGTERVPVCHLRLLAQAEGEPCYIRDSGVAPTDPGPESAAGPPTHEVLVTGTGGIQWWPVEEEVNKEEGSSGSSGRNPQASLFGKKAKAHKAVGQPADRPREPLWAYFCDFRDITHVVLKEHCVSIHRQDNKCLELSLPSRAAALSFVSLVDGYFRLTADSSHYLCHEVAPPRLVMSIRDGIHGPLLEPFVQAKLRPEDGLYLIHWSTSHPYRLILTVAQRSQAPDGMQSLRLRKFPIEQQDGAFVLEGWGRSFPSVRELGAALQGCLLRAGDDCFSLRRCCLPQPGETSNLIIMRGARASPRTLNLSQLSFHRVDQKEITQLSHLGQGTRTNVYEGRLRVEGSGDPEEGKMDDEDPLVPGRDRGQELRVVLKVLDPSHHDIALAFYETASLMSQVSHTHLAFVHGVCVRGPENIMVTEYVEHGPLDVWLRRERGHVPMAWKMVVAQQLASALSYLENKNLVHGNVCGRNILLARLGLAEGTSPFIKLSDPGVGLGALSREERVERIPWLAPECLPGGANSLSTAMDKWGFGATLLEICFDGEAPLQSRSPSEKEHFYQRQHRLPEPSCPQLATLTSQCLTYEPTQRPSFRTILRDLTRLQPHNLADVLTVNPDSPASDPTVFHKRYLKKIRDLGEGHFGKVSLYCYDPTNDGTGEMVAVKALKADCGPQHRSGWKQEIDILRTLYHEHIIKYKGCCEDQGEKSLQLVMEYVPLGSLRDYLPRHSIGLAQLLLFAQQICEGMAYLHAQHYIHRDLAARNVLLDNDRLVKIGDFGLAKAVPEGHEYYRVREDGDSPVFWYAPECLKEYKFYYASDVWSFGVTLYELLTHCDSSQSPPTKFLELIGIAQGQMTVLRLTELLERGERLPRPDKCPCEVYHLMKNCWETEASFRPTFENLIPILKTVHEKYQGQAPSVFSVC
# JAK1, sequence (P23458 whole entry): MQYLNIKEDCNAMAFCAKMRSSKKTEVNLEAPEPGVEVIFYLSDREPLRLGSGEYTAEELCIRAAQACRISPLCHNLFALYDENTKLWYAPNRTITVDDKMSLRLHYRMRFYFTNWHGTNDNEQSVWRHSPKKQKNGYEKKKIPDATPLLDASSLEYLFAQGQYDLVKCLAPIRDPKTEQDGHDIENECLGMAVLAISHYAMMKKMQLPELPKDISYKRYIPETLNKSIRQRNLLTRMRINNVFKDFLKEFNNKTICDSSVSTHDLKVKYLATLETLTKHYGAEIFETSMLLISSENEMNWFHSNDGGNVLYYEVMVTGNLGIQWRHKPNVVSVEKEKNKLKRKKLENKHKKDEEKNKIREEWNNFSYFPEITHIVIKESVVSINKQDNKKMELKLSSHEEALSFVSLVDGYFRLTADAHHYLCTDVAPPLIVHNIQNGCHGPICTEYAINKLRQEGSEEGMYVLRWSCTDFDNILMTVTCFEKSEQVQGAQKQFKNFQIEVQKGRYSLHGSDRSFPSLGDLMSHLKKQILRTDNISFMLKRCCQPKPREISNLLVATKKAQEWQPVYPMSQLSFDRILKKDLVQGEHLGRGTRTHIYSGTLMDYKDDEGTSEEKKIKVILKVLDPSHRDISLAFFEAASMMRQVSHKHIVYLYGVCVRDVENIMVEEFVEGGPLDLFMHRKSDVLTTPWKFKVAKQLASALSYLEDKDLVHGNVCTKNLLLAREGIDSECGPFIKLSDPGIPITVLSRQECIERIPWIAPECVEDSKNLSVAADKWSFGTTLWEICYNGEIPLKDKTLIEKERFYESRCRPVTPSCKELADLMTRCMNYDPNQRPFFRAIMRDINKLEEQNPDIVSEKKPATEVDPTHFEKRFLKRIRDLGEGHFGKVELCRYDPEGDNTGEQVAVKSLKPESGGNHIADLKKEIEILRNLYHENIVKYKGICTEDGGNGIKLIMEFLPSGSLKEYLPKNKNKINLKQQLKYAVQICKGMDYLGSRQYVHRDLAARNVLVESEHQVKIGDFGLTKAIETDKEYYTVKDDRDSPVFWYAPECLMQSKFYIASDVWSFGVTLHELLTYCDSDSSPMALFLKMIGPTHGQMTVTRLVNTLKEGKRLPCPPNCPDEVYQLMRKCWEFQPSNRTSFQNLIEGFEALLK
# JAK3, sequence (P52333 whole entry): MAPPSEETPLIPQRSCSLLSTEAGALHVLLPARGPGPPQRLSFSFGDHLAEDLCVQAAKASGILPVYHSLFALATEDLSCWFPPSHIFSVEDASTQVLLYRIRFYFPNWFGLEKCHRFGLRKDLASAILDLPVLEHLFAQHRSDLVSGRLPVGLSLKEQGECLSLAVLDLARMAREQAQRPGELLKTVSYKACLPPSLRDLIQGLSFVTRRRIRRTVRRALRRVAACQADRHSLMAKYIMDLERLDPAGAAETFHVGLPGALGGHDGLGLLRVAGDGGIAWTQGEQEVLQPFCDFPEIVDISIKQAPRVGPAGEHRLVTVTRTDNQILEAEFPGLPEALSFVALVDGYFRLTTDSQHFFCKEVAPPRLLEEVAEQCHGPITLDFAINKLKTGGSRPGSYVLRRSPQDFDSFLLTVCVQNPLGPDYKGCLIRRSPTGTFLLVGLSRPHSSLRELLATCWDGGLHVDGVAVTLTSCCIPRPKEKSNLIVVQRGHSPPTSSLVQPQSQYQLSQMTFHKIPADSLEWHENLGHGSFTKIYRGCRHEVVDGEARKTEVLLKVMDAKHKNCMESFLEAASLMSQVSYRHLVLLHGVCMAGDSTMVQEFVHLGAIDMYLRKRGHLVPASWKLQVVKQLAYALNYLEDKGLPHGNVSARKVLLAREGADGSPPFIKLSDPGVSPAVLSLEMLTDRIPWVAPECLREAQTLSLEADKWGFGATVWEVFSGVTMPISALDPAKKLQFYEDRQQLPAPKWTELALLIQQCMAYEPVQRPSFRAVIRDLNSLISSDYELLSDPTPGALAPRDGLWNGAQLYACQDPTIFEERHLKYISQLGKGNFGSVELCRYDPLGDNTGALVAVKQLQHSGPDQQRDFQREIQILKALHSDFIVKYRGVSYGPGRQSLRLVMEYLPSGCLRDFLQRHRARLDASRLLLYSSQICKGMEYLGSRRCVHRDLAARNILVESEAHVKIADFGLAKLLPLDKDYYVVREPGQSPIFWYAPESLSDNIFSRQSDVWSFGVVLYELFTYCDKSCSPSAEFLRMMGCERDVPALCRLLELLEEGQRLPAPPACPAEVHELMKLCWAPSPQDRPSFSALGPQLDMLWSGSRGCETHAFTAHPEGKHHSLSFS
# JAK2, sequence (O60674 whole entry): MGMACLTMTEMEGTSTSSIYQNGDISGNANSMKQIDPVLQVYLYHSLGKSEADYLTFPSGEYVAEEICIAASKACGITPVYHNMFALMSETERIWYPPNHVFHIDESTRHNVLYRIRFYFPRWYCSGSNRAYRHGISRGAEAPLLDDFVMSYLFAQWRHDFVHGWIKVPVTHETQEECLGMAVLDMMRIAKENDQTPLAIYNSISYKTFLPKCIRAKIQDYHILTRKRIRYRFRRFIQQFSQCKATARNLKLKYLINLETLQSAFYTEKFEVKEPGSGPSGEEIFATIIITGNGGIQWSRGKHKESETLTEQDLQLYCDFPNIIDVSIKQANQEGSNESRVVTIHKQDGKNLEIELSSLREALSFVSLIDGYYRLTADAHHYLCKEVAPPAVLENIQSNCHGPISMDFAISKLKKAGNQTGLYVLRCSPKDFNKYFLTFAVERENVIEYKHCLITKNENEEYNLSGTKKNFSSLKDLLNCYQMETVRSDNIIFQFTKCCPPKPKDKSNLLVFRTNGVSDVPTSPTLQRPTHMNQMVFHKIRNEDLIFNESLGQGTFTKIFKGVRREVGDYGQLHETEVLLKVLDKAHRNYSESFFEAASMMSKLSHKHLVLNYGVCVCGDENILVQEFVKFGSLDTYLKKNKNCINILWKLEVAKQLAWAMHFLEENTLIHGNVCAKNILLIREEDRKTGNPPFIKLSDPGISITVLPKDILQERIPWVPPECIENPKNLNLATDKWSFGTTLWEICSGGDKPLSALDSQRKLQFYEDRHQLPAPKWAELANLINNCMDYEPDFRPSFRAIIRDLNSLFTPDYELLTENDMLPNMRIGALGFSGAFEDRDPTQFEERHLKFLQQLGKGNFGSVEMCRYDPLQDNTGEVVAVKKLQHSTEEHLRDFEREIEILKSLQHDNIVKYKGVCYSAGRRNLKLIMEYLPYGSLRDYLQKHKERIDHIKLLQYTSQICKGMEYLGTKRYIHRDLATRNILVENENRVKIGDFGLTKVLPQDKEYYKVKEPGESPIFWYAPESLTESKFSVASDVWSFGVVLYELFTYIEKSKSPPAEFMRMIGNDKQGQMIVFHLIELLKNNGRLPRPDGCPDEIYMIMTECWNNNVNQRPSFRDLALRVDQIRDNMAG
SMILES,Caco Kp (Caco-2 cell monolayers),JAK 1 (pKi) (JAK1),Tall-1 (pIC50) [1],Tyk 2 (pKi) (Tyk2),JAK 2 (pKi) (JAK2),JAK 3 (pKi) (JAK3),JAK3 (pKi)-JAK1 (pKi) (JAK3)
C=CC(=O)N1CC(CC)(CCn2c(=O)ccc3cnc(Nc4ccc(N5CCN(C(C)=O)CC5)cc4)nc32)C1 [Example 180],A (A represents a value below 5×10^−6 cm/sec),E (E represents a pKi value of 7 or below (Ki of 100 nM or above)),B (B represents a pC50 value between 6.7 (included) and 7.5 (IC50 between 200 nM and 32 nM)),E (E represents a pKi value of 7 or below (Ki of 100 nM or above)),E (E represents a pKi value of 7 or below (Ki of 100 nM or above)),B (B represents pKi value between 9 and 10 (Ki between 1 nM and 0.1 nM)),A (A represents a value of 3 or above)
C=CC(=O)N1CCN(CCn2c(=O)ccc3cnc(Nc4cnn(CCF)c4)nc32)[C@@H](CC)C1 [Example 202],A (A represents a value below 5×10^−6 cm/sec),E (E represents a pKi value of 7 or below (Ki of 100 nM or above)),B (B represents a pC50 value between 6.7 (included) and 7.5 (IC50 between 200 nM and 32 nM)),E (E represents a pKi value of 7 or below (Ki of 100 nM or above)),E (E represents a pKi value of 7 or below (Ki of 100 nM or above)),B (B represents pKi value between 9 and 10 (Ki between 1 nM and 0.1 nM)),A (A represents a value of 3 or above)
C=CC(=O)N1CC(CCn2c(=O)ccc3cnc(Nc4ccc(N5CCN(C)CC5)cn4)cc32)C1 [Example 14],A (A represents a value below 5×10^−6 cm/sec),E (E represents a pKi value of 7 or below (Ki of 100 nM or above)),A (A represents a pIC50 value≥7.5 (IC50≤32 nM)),E (E represents a pKi value of 7 or below (Ki of 100 nM or above)),E (E represents a pKi value of 7 or below (Ki of 100 nM or above)),B (B represents pKi value between 9 and 10 (Ki between 1 nM and 0.1 nM)),A (A represents a value of 3 or above)
C=CC(=O)N1CC(CCn2c(=O)ccc3cnc(Nc4ccc(NS(C)(=O)=O)cc4)nc32)C1 [Example 69],A (A represents a value below 5×10^−6 cm/sec),E (E represents a pKi value of 7 or below (Ki of 100 nM or above)),B (B represents a pC50 value between 6.7 (included) and 7.5 (IC50 between 200 nM and 32 nM)),E (E represents a pKi value of 7 or below (Ki of 100 nM or above)),E (E represents a pKi value of 7 or below (Ki of 100 nM or above)),A (A represents a pKi value≥10 (Ki≤0.1 nM)),A (A represents a value of 3 or above)
C=CC(=O)N1CCN(CCn2c(=O)ccc3cnc(Nc4ccc(N5CCN(C)CC5)cc4)nc32)[C@@H](CO)C1 [Example 193],A (A represents a value below 5×10^−6 cm/sec),E (E represents a pKi value of 7 or below (Ki of 100 nM or above)),B (B represents a pC50 value between 6.7 (included) and 7.5 (IC50 between 200 nM and 32 nM)),E (E represents a pKi value of 7 or below (Ki of 100 nM or above)),E (E represents a pKi value of 7 or below (Ki of 100 nM or above)),B (B represents pKi value between 9 and 10 (Ki between 1 nM and 0.1 nM)),A (A represents a value of 3 or above)
C=CC(=O)N1CC(CCn2c(=O)ccc3cnc(Nc4ccc5cn[nH]c5c4)nc32)C1 [Example 83],A (A represents a value below 5×10^−6 cm/sec),E (E represents a pKi value of 7 or below (Ki of 100 nM or above)),C (C represents a pIC50 value between 6 and 6.7 (IC50 between 1 μM and 200 nM)),E (E represents a pKi value of 7 or below (Ki of 100 nM or above)),E (E represents a pKi value of 7 or below (Ki of 100 nM or above)),B (B represents pKi value between 9 and 10 (Ki between 1 nM and 0.1 nM)),A (A represents a value of 3 or above)
C=CC(=O)N1CC(CCn2c(=O)ccc3cnc(Nc4cccc(N5CCN(C(=O)OC)CC5)c4)nc32)C1 [Example 123],C (C represents a value between 10×10^−6 and 30×10^−6 cm/sec),E (E represents a pKi value of 7 or below (Ki of 100 nM or above)),B (B represents a pC50 value between 6.7 (included) and 7.5 (IC50 between 200 nM and 32 nM)),E (E represents a pKi value of 7 or below (Ki of 100 nM or above)),E (E represents a pKi value of 7 or below (Ki of 100 nM or above)),B (B represents pKi value between 9 and 10 (Ki between 1 nM and 0.1 nM)),A (A represents a value of 3 or above)
C=CC(=O)N1CC(CCn2c(=O)ccc3cnc(Nc4ccc(N5CCN(C(=O)SC(C)(C)C)CC5)cc4)nc32)C1 [Example 98],A (A represents a value below 5×10^−6 cm/sec),E (E represents a pKi value of 7 or below (Ki of 100 nM or above)),B (B represents a pC50 value between 6.7 (included) and 7.5 (IC50 between 200 nM and 32 nM)),E (E represents a pKi value of 7 or below (Ki of 100 nM or above)),E (E represents a pKi value of 7 or below (Ki of 100 nM or above)),A (A represents a pKi value≥10 (Ki≤0.1 nM)),A (A represents a value of 3 or above)
C=CC(=O)N1CC(CCn2c(=O)ccc3cnc(Nc4cnn(CCN5CCOCC5)c4)nc32)C1 [Example 61],A (A represents a value below 5×10^−6 cm/sec),E (E represents a pKi value of 7 or below (Ki of 100 nM or above)),B (B represents a pC50 value between 6.7 (included) and 7.5 (IC50 between 200 nM and 32 nM)),E (E represents a pKi value of 7 or below (Ki of 100 nM or above)),E (E represents a pKi value of 7 or below (Ki of 100 nM or above)),B (B represents pKi value between 9 and 10 (Ki between 1 nM and 0.1 nM)),A (A represents a value of 3 or above)
C=CC(=O)N1CCN(CCn2c(=O)ccc3cnc(Nc4ccc(N5CCN(C(=O)CCSC)CC5)cc4)nc32)[C@@H](CC)C1 [Example 192],C (C represents a value between 10×10^−6 and 30×10^−6 cm/sec),E (E represents a pKi value of 7 or below (Ki of 100 nM or above)),B (B represents a pC50 value between 6.7 (included) and 7.5 (IC50 between 200 nM and 32 nM)),E (E represents a pKi value of 7 or below (Ki of 100 nM or above)),E (E represents a pKi value of 7 or below (Ki of 100 nM or above)),B (B represents pKi value between 9 and 10 (Ki between 1 nM and 0.1 nM)),A (A represents a value of 3 or above)

# From patent US11697648B2, “Fused pyrimidine pyridinone compounds as JAK inhibitors” (THERAVANCE BIOPHARMA R&D IP, LLC, priority 2019, dated 2023)
